Results reported in paper PMC4774911, “Biochemical Screening of Five Protein Kinases from Plasmodium falciparum against 14,000 Cell-Active Compounds” (PLoS ONE, 2016).
Like-named read-outs stand apart in the source and are kept apart here.

Tests used:
3D7 PFLDH [1] = system: 3D7 PFLDH; parameters: method as in F.J. Gamo et al., Nature 2010; details: downloaded from ChEMBL ref F.J. Gamo et al., Nature 2010; cited from earlier work
HepG2 cells = details: Nature 2010, cited from earlier work
P. falciparum 3D7 cells = details: Nature 2010, cited from earlier work
[2] = biological target: T1, Plasmodium falciparum protein kinase 6 (PK6) (Plasmodium falciparum, UniProt Q8IDW1); assay: biochemical
T1 construct: 6-Histidine (N); made in house
T1 sequence (Q8IDW1 1-305): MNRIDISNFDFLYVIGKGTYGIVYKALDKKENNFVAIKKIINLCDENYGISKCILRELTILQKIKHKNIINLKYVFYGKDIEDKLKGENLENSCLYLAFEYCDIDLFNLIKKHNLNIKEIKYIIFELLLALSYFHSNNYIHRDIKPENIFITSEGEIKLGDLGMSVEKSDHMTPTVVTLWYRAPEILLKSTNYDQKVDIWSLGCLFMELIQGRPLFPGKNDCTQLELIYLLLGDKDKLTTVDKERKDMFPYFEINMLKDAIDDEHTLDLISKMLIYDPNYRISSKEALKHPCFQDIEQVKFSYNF

DD2 [3] = system: DD2; parameters: method as in F.J. Gamo et al., Nature 2010; details: P. falciparum Dd2; downloaded from ChEMBL ref F.J. Gamo et al., Nature 2010; cited from earlier work
3D7 PFLDH [4] = system: 3D7 PFLDH; parameters: method as in F.J. Gamo et al., Nature 2010; concentration or dose not given beside the values; details: downloaded from ChEMBL, ref F.J. Gamo et al., Nature 2010; cited from earlier work
DD2 [5] = system: DD2; parameters: method as in F.J. Gamo et al., Nature 2010; details: downloaded from ChEMBL, ref F.J. Gamo et al., Nature 2010; cited from earlier work
[6] = biological target: T2, Plasmodium falciparum calcium-dependent protein kinase 1 (CDPK1) (Plasmodium falciparum, UniProt P62344); assay: CDPK1 Kinase-Glo ATP-consumption screen and dose-response; type: biochemical; details: hits below 1 uM; read-out: CDPK1 IC50
T2 construct: 6-Histidine (N); made in house
T2 sequence (P62344 whole entry): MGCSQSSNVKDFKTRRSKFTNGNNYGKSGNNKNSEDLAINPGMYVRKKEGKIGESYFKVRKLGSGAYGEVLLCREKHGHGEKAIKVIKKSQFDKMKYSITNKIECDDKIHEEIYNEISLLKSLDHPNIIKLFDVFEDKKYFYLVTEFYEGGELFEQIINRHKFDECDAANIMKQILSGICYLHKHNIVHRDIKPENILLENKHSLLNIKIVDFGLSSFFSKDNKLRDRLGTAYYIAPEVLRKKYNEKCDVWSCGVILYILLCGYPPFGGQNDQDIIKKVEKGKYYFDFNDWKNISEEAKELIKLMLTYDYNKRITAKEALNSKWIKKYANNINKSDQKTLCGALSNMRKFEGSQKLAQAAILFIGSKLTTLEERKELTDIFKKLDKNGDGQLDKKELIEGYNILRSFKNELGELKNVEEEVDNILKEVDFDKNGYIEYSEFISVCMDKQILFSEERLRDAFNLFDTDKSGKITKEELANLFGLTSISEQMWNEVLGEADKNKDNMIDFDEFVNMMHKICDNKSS
In short: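 ATP consumption by recombinant P. falciparum CDPK4 or CDPK1 measured as residual ATP by Kinase-Glo luminescence, with 40 μM Syntide-2 substrate and 90 min incubation stopped with 5 mM EGTA. Single-point screen at 1 μM final, followed by dose-response; no-substrate wells as negative control.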

[7] = HepG2 cells, downloaded from ChEMBL ref F.J. Gamo et al.
[8] = P. falciparum 3D7, downloaded from ChEMBL ref F.J. Gamo et al.
[9] = hits below 1 uM, read-out: PK6 IC50
[10] = HepG2, downloaded from ChEMBL, ref F.J. Gamo et al.
[11] = 3D7, downloaded from ChEMBL, ref F.J. Gamo et al.

Compound	PCT_INHIB_3D7_PFLDH (3D7 PFLDH [1])	PCT_INHIB_HEPG2 (HepG2 cells; [7])	PCT_IHB_3D7 (P. falciparum 3D7 cells; [8])	pXC50_3D7 (P. falciparum 3D7 cells; [8])	IC50 [2, 9] [nM]	PCT_INHB_DD2 (DD2 [3])	PCT_INHIB_3D7_PFLDH (3D7 PFLDH [4]) [%]	PCT_INHB_DD2 (DD2 [5]) [%]	PCT_INHIB_HEPG2 (HepG2 cells; [10]) [%]	PCT_IHB_3D7 (P. falciparum 3D7 cells; [11]) [%]	pXC50_3D7 (P. falciparum 3D7 cells; [11])	IC50 [6] [nM]	IC50 [2] [nM]
Nc1ncc(-c2cccc(F)c2)cc1-c1nc2cc(F)ccc2[nH]1.O=C(O)C(F)(F)F [TCMDC-133132]	0	54	100	6.757	206	88	–	–	–	–	–	–	–
CNC(=O)c1ccccc1Nc1nc(Nc2cccc(CS(C)(=O)=O)c2)ncc1C.O=CO [TCMDC-133809]	–	–	–	–	133	–	0	95	74	97	6.2733	145	–
Cl.NC(=O)c1ccccc1Nc1nc(Nc2cccc(N3CCN(CCO)CC3)c2)ncc1Cl [TCMDC-134114]	–	–	–	–	80	–	1	98	93	95	7.402	58	–
COc1ccc(Nc2ncc(C#N)c(Nc3ccccc3C(N)=O)n2)cc1N1CCN(C)CC1.Cl [TCMDC-134117]	–	–	–	–	61	–	0	97	56	93	6.867	89	–
CNC(=O)c1ccccc1Nc1nc(Nc2ccc(N3CCN(C)CC3)nc2)ncc1C.Cl [TCMDC-134123]	–	–	–	–	143	–	4	50	75	92	5.942	45	–
CNC(=O)c1ccccc1Nc1nc(Nc2ccc(N3CCOCC3)cc2)ncc1Cl.Cl [TCMDC-134144]	–	–	–	–	42	–	0	97	75	97	6.138	144	–
COc1ccc(Nc2ncc(OC)c(Nc3ccccc3C(N)=O)n2)cc1N1CCN(C)CC1.O=CO [TCMDC-134149]	–	–	–	–	270	–	0	96	63	100	6.131	967	–
COc1ccc(Nc2ncc(Cl)c(Nc3cccnc3C(N)=O)n2)cc1N1CCN(C)CC1.Cl [TCMDC-134163]	–	–	–	–	86	–	6	97	77	95	6.6478	559	–
Cc1cc(Nc2ncc(Cl)c(Nc3ccccc3C(N)=O)n2)n[nH]1 [TCMDC-134170]	–	–	–	–	129	–	0	96	70	98	6.091	76	–
CS(=O)(=O)Cc1ccc(Nc2nccc(N3CCCc4cc(NC(=O)Nc5cccc(C(F)(F)F)c5)ccc43)n2)cc1 [TCMDC-134309]	–	–	–	–	385	–	0	99	46	100	6.829	145	–
O=C(O)C(F)(F)F.O=c1[nH]ccc2nc(N[C@@H]3CCCNC3)nc(Nc3ccc(S(=O)(=O)N4CCOCC4)cc3)c12 [TCMDC-135038]	–	–	–	–	115	–	0	99	13	96	6.13	146	–
CN1CCN(c2ccc(Nc3nccc(-c4cnn5ncccc45)n3)cc2Cl)CC1 [TCMDC-138688]	0	65	95	6.08	179	92	–	–	–	–	–	232	–
CC(=O)c1ccc(NC(=O)Nc2ccc(N(C)c3ccnc(Nc4cccc(CS(C)(=O)=O)c4)n3)cc2)cc1 [TCMDC-138736]	–	–	–	–	138	–	0	98	86	100	6.9122	–	–
CN(c1ccc2c(c1)nc(NCc1ccc(F)cc1)n2C)c1ccnc(Nc2ccc(CS(C)(=O)=O)cc2)n1.Cl [TCMDC-138747]	–	–	–	–	844	–	7	79	48	97	6.082	–	–
CCNC(=O)Nc1ccc(N(C)c2ccnc(Nc3ccc(CS(C)(=O)=O)cc3)n2)cc1.Cl [TCMDC-138759]	–	–	–	–	269	–	2	99	0	100	7.051	–	–
CN(c1ccc(NC(=O)Nc2cccc(Cl)c2)cc1)c1ccnc(N)n1.Cl [TCMDC-138782]	–	–	–	–	402	–	0	40	75	100	6.202	–	–
NS(=O)(=O)c1cccc(Nc2nccc(-c3cnn4ncccc34)n2)c1 [TCMDC-138919]	0	39	89	6.18	246	89	–	–	–	–	–	–	–
CN(c1ccc(NC(=O)Nc2cc(C(F)(F)F)ccc2F)cc1)c1ccnc(NCCN2CCOCC2)n1.O=C(O)C(F)(F)F [TCMDC-141590]	–	–	–	–	520	–	0	73	67	97	6.29	–	–
CCN(CC)CCNc1nccc(N(C)c2ccc(NC(=O)Nc3cc(C(F)(F)F)ccc3F)cc2)n1.O=C(O)C(F)(F)F [TCMDC-141632]	–	–	–	–	–	–	1	25	74	97	6.26	–	917
CCN(CC)CCCNc1nccc(N(C)c2ccc(NC(=O)Nc3cc(C(F)(F)F)ccc3F)cc2)n1.O=C(O)C(F)(F)F [TCMDC-141634]	–	–	–	–	705	–	0	19	96	94	5.978	–	–
CN(c1ccc(NC(=O)Nc2cc(C(C)(C)C)on2)cc1)c1ccnc(NCCN2CCOCC2)n1.O=C(O)C(F)(F)F [TCMDC-141706]	–	–	–	–	375	–	0	18	51	95	5.949	–	–
